Laboratory results reported in ChEMBL document CHEMBL3885881, “DrugMatrix”.

Species on record: Rattus norvegicus
Assay: DrugMatrix - Regimen: Daily Repeat
Assay type: toxicity, organism-based, Sprague-Dawley
Design: regimen Daily Repeat, gender Male, age 6-8 weeks
Conditions: in vivo, iv, 20 mg/kg, dose level Low, vehicle 100 % SALINE; for ABSOLUTE BASOPHIL / ABSOLUTE EOSINOPHIL / ABSOLUTE LYMPHOCYTE / ABSOLUTE MONOCYTE / ABSOLUTE SEGMENTED NEUTROPHIL / BASOPHIL / EOSINOPHIL / ERYTHROCYTE COUNT / HEMATOCRIT / HEMOGLOBIN / LEUKOCYTE COUNT / LYMPHOCYTE / MEAN CORPUSCULAR HEMOGLOBIN / MONOCYTE / NEUTROPHIL / NUCLEATED RED BLOOD CELLS / PLATELET COUNT: tissue Blood; for ALANINE AMINOTRANSFERASE / ALBUMIN / ALKALINE PHOSPHATASE / ASPARTATE AMINOTRANSFERASE / BLOOD UREA NITROGEN / CARBON DIOXIDE / CHLORIDE / CHOLESTEROL / CREATINE PHOSPHOKINASE / CREATININE / GLUCOSE / LACTATE DEHYDROGENASE / LIPASE / PHOSPHORUS / POTASSIUM / SODIUM / TOTAL BILIRUBIN / TOTAL PROTEIN / URIC ACID: tissue Plasma

Compound: CCC[C@@H]1C[C@@H](C(=O)N[C@@H]([C@H]2O[C@H](SC)[C@H](O)[C@@H](O)[C@H]2O)[C@H](C)Cl)N(C)C1 [CLINDAMYCIN]
- ABSOLUTE BASOPHIL (72 h, time 3 day): 0 CELLS/uL
- ABSOLUTE EOSINOPHIL (72 h, time 3 day): 40 CELLS/uL
- ABSOLUTE LYMPHOCYTE (72 h, time 3 day): 9607.67 CELLS/uL
- ABSOLUTE MONOCYTE (72 h, time 3 day): 40 CELLS/uL
- ABSOLUTE SEGMENTED NEUTROPHIL (72 h, time 3 day): 712.33 CELLS/uL
- BASOPHIL (72 h, time 3 day): 0%
- EOSINOPHIL (72 h, time 3 day): 0.33%
- ERYTHROCYTE COUNT (72 h, time 3 day): 5.49 x10E6/uL
- HEMATOCRIT (72 h, time 3 day): 34.93%
- HEMOGLOBIN (72 h, time 3 day): 13.7 G/DL
- LEUKOCYTE COUNT (72 h, time 3 day): 10.4 x10E3/uL
- LYMPHOCYTE (72 h, time 3 day): 92.67%
- MEAN CORPUSCULAR HEMOGLOBIN (72 h, time 3 day): 24.97 pg
- MONOCYTE (72 h, time 3 day): 0.33%
- NEUTROPHIL (72 h, time 3 day): 6.67%
- NUCLEATED RED BLOOD CELLS (72 h, time 3 day): 0 /100WBC
- PLATELET COUNT (72 h, time 3 day): 1194.33 x10E3/uL
- ALANINE AMINOTRANSFERASE (72 h, time 3 day): 42 u/L
- ALBUMIN (72 h, time 3 day): 4.4 G/DL
- ALKALINE PHOSPHATASE (72 h, time 3 day): 375.67 u/L
- ASPARTATE AMINOTRANSFERASE (72 h, time 3 day): 82.67 u/L
- BLOOD UREA NITROGEN (72 h, time 3 day): 19 mg/dL
- CARBON DIOXIDE (72 h, time 3 day): 35.33 mmol/L
- CHLORIDE (72 h, time 3 day): 97 MEQ/L
- CHOLESTEROL (72 h, time 3 day): 81.33 mg/dL
- CREATINE PHOSPHOKINASE (72 h, time 3 day): 250 u/L
- CREATININE (72 h, time 3 day): 0.19 mg/dL
- GLUCOSE (72 h, time 3 day): 124.33 mg/dL
- LACTATE DEHYDROGENASE (72 h, time 3 day): 260.67 u/L
- LIPASE (72 h, time 3 day): 11 u/L
- PHOSPHORUS (72 h, time 3 day): 9.63 mg/dL
- POTASSIUM (72 h, time 3 day): 6.58 MEQ/L
- SODIUM (72 h, time 3 day): 143.4 MEQ/L
- TOTAL BILIRUBIN (72 h, time 3 day): 0.17 mg/dL
- TOTAL PROTEIN (72 h, time 3 day): 6.4 G/DL
- URIC ACID (72 h, time 3 day): 0.87 mg/dL
- ABSOLUTE BASOPHIL (120 h, time 5 day): 0 CELLS/uL
- ABSOLUTE EOSINOPHIL (120 h, time 5 day): 97.33 CELLS/uL
- ABSOLUTE LYMPHOCYTE (120 h, time 5 day): 13386.67 CELLS/uL
- ABSOLUTE MONOCYTE (120 h, time 5 day): 100.67 CELLS/uL
- ABSOLUTE SEGMENTED NEUTROPHIL (120 h, time 5 day): 1348.67 CELLS/uL
- BASOPHIL (120 h, time 5 day): 0%
- EOSINOPHIL (120 h, time 5 day): 0.67%
- ERYTHROCYTE COUNT (120 h, time 5 day): 5.84 x10E6/uL
- HEMATOCRIT (120 h, time 5 day): 35.8%
- HEMOGLOBIN (120 h, time 5 day): 14.27 G/DL
- LEUKOCYTE COUNT (120 h, time 5 day): 14.93 x10E3/uL
- LYMPHOCYTE (120 h, time 5 day): 89.67%
- MEAN CORPUSCULAR HEMOGLOBIN (120 h, time 5 day): 24.47 pg
- MONOCYTE (120 h, time 5 day): 0.67%
- NEUTROPHIL (120 h, time 5 day): 9%
- NUCLEATED RED BLOOD CELLS (120 h, time 5 day): 0 /100WBC
- PLATELET COUNT (120 h, time 5 day): 1266.67 x10E3/uL
- ALANINE AMINOTRANSFERASE (120 h, time 5 day): 57.67 u/L
- ALBUMIN (120 h, time 5 day): 4.33 G/DL
- ALKALINE PHOSPHATASE (120 h, time 5 day): 400.67 u/L
- ASPARTATE AMINOTRANSFERASE (120 h, time 5 day): 85 u/L
- BLOOD UREA NITROGEN (120 h, time 5 day): 18.67 mg/dL
- CARBON DIOXIDE (120 h, time 5 day): 35.33 mmol/L
- CHLORIDE (120 h, time 5 day): 100.33 MEQ/L
- CHOLESTEROL (120 h, time 5 day): 70.67 mg/dL
- CREATINE PHOSPHOKINASE (120 h, time 5 day): 217 u/L
- CREATININE (120 h, time 5 day): 0.19 mg/dL
- GLUCOSE (120 h, time 5 day): 148.33 mg/dL
- LACTATE DEHYDROGENASE (120 h, time 5 day): 152.67 u/L
- LIPASE (120 h, time 5 day): 8.33 u/L
- PHOSPHORUS (120 h, time 5 day): 12.6 mg/dL
- POTASSIUM (120 h, time 5 day): 7.37 MEQ/L
- SODIUM (120 h, time 5 day): 144.4 MEQ/L
- TOTAL BILIRUBIN (120 h, time 5 day): 0.2 mg/dL
- TOTAL PROTEIN (120 h, time 5 day): 6.43 G/DL
- URIC ACID (120 h, time 5 day): 1.67 mg/dL
